Laboratory results from US12077503B2, “Substituted cyclic amides and their use as herbicides” (FMC CORPORATION, priority 2015, dated 2024).

What was measured:
Assay type in all cases: in vivo
[1] = test system: barnyardgrass (Echinochloa crus-galli); assay: Test G Pre-Emergence Protocol; details: Echinochloa crus-galli, pre-emergence, 312 h, evaluated after 13 days; for pest or weed control at 15.625 g/ha: 15.625 g ai/ha, read-out: Barnyard grass damage rating (100=total damage to plant; 0=no damage to plant); for pest or weed control at 62.5 g/ha: 62.5 g ai/ha, 100=total damage to plant, 0=no damage to plant, read-out: plant damage rating, Barnyardgrass; for pest or weed control at 250 g/ha: 250 g ai/ha, read-out: Barnyardgrass damage rating (100=total damage to plant; 0=no damage to plant)
Outline: (§1)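 Under a 24/16° C day/night regime with 14 h light and 65% humidity, sown pots were sprayed after one day with compound (15.625, 62.5 or 250 g/ha; 50:50 acetone/water, 0.5% Tween 20). Damage was assessed visually 13 days later, 0 to 100.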

corn (Zea mays) [2] = assay: Test G Pre-Emergence Protocol; details: Zea mays, pre-emergence, 312 h, evaluated after 13 days; for plant injury at 15.625 g/ha: 15.625 g ai/ha; for plant injury at 15.625 g/ha / plant injury at 250 g/ha: read-out: Corn damage rating (100=total damage to plant; 0=no damage to plant); for plant injury at 62.5 g/ha: 62.5 g ai/ha, 100=total damage to plant, 0=no damage to plant, read-out: plant damage rating, Corn; for plant injury at 250 g/ha: 250 g ai/ha
Outline: as §1

[3] = test system: giant foxtail (Setaria faberi); assay: Test G Pre-Emergence Protocol; details: Setaria faberi, pre-emergence, 312 h, evaluated after 13 days; for pest or weed control at 15.625 g/ha: 15.625 g ai/ha; for pest or weed control at 15.625 g/ha / pest or weed control at 250 g/ha: read-out: Foxtail, Giant damage rating (100=total damage to plant; 0=no damage to plant); for pest or weed control at 62.5 g/ha: 62.5 g ai/ha, 100=total damage to plant, 0=no damage to plant, read-out: plant damage rating, Foxtail, Giant; for pest or weed control at 250 g/ha: 250 g ai/ha
Outline: as §1

[4] = test system: ivy-leaved morning glory (Ipomoea hederacea); assay: Test G Pre-Emergence Protocol; details: Ipomoea, pre-emergence, 312 h, evaluated after 13 days; for pest or weed control at 15.625 g/ha: 15.625 g ai/ha, read-out: Morning-glory, Ivy-leaved damage rating (100=total damage to plant; 0=no damage to plant); for pest or weed control at 62.5 g/ha: 62.5 g ai/ha, 100=total damage to plant, 0=no damage to plant, read-out: plant damage rating, Morningglory, Ivy-leaved; for pest or weed control at 250 g/ha: 250 g ai/ha, read-out: Morningglory, Ivy-leaved damage rating (100=total damage to plant; 0=no damage to plant)
Outline: as §1

[5] = test system: redroot pigweed (Amaranthus retroflexus); assay: Test G Pre-Emergence Protocol; details: Amaranthus retroflexus, pre-emergence, 312 h, evaluated after 13 days; for pest or weed control at 15.625 g/ha: 15.625 g ai/ha; for pest or weed control at 15.625 g/ha / pest or weed control at 250 g/ha: read-out: Pigweed, Redroot damage rating (100=total damage to plant; 0=no damage to plant); for pest or weed control at 62.5 g/ha: 62.5 g ai/ha, 100=total damage to plant, 0=no damage to plant, read-out: plant damage rating, Pigweed, Redroot; for pest or weed control at 250 g/ha: 250 g ai/ha
Outline: as §1

[6] = test system: velvetleaf (Abutilon theophrasti); assay: Test G Pre-Emergence Protocol; details: Abutilon theophrasti, pre-emergence, 312 h, evaluated after 13 days; for pest or weed control at 15.625 g/ha: 15.625 g ai/ha; for pest or weed control at 15.625 g/ha / pest or weed control at 250 g/ha: read-out: Velvetleaf damage rating (100=total damage to plant; 0=no damage to plant); for pest or weed control at 62.5 g/ha: 62.5 g ai/ha, 100=total damage to plant, 0=no damage to plant, read-out: plant damage rating, Velvetleaf; for pest or weed control at 250 g/ha: 250 g ai/ha
Outline: as §1

[7] = test system: barnyardgrass (Echinochloa crus-galli); assay: Test G Post-Emergence Protocol; details: Echinochloa crus-galli, post-emergence, 312 h; for pest or weed control at 15.625 g/ha: 15.625 g ai/ha, evaluated after 13 days (100=total damage to plant; 0=no damage to plant), read-out: Barnyardgrass damage rating; for pest or weed control at 62.5 g/ha: 62.5 g ai/ha, read-out: Barnyardgrass damage rating (100=total damage to plant; 0=no damage to plant); for pest or weed control at 62.5 g/ha / pest or weed control at 250 g/ha: evaluated after 13 days; for pest or weed control at 250 g/ha: 250 g ai/ha, read-out: damage to plant, Barnyardgrass (100=total damage to plant; 0=no damage to plant)
Outline: (§2)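 Values are percent visual injury at 13 days after treatment (0 none, 100 total). Treatment was a post-emergence spray at 15.625, 62.5 or 250 g/ha on 8-day-old pot plants kept at 24/16 °C.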

corn (Zea mays) [8] = assay: Test G Post-Emergence Protocol; details: Zea mays, post-emergence, 312 h; for plant injury at 15.625 g/ha: 15.625 g ai/ha, evaluated after 13 days (100=total damage to plant; 0=no damage to plant), read-out: Corn damage rating; for plant injury at 62.5 g/ha: 62.5 g ai/ha, read-out: Corn damage rating (100=total damage to plant; 0=no damage to plant); for plant injury at 62.5 g/ha / plant injury at 250 g/ha: evaluated after 13 days; for plant injury at 250 g/ha: 250 g ai/ha, read-out: damage to plant, Corn (100=total damage to plant; 0=no damage to plant)
Outline: as §2

[9] = test system: giant foxtail (Setaria faberi); assay: Test G Post-Emergence Protocol; details: Setaria faberi, post-emergence, 312 h; for pest or weed control at 15.625 g/ha: 15.625 g ai/ha, evaluated after 13 days (100=total damage to plant; 0=no damage to plant), read-out: Foxtail, Giant damage rating; for pest or weed control at 62.5 g/ha: 62.5 g ai/ha, read-out: Foxtail, Giant damage rating (100=total damage to plant; 0=no damage to plant); for pest or weed control at 62.5 g/ha / pest or weed control at 250 g/ha: evaluated after 13 days; for pest or weed control at 250 g/ha: 250 g ai/ha, read-out: damage to plant, Foxtail, Giant (100=total damage to plant; 0=no damage to plant)
Outline: as §2

[10] = test system: ivy-leaved morning glory (Ipomoea hederacea); assay: Test G Post-Emergence Protocol; details: Ipomoea, post-emergence, 312 h; for pest or weed control at 15.625 g/ha: 15.625 g ai/ha, evaluated after 13 days (100=total damage to plant; 0=no damage to plant), read-out: Morningglory, Ivy-leaved damage rating; for pest or weed control at 62.5 g/ha: 62.5 g ai/ha, read-out: Morningglory, Ivy-leaved damage rating (100=total damage to plant; 0=no damage to plant); for pest or weed control at 62.5 g/ha / pest or weed control at 250 g/ha: evaluated after 13 days; for pest or weed control at 250 g/ha: 250 g ai/ha, read-out: damage to plant, Morningglory, Ivy-leaved (100=total damage to plant; 0=no damage to plant)
Outline: as §2

[11] = test system: redroot pigweed (Amaranthus retroflexus); assay: Test G Post-Emergence Protocol; details: Amaranthus retroflexus, post-emergence, 312 h; for pest or weed control at 15.625 g/ha: 15.625 g ai/ha, evaluated after 13 days (100=total damage to plant; 0=no damage to plant), read-out: Pigweed, Redroot damage rating; for pest or weed control at 62.5 g/ha: 62.5 g ai/ha, read-out: Pigweed, Redroot damage rating (100=total damage to plant; 0=no damage to plant); for pest or weed control at 62.5 g/ha / pest or weed control at 250 g/ha: evaluated after 13 days; for pest or weed control at 250 g/ha: 250 g ai/ha, read-out: damage to plant, Pigweed, Redroot (100=total damage to plant; 0=no damage to plant)
Outline: as §2

[12] = test system: velvetleaf (Abutilon theophrasti); assay: Test G Post-Emergence Protocol; details: Abutilon theophrasti, post-emergence, 312 h; for pest or weed control at 15.625 g/ha: 15.625 g ai/ha, evaluated after 13 days (100=total damage to plant; 0=no damage to plant), read-out: Velvetleaf damage rating; for pest or weed control at 62.5 g/ha: 62.5 g ai/ha, read-out: Velvetleaf damage rating (100=total damage to plant; 0=no damage to plant); for pest or weed control at 62.5 g/ha / pest or weed control at 250 g/ha: evaluated after 13 days; for pest or weed control at 250 g/ha: 250 g ai/ha, read-out: damage to plant, Velvetleaf (100=total damage to plant; 0=no damage to plant)
Outline: as §2

## Cc1nnc(NC(=O)[C@@H]2C(=O)N(C)C[C@H]2c2ccc(C(F)(F)F)cc2)s1 (racemic) [Compound 1559]
[1]
  pest or weed control at 15.625 g/ha: 0%
  pest or weed control at 62.5 g/ha: 0%
  pest or weed control at 250 g/ha: 0%
Corn (Zea mays) [2]
  plant injury at 15.625 g/ha: 0%
  plant injury at 62.5 g/ha: 0%
  plant injury at 250 g/ha: 0%
[3]
  pest or weed control at 15.625 g/ha: 0%
  pest or weed control at 62.5 g/ha: 0%
  pest or weed control at 250 g/ha: 0%
[4]
  pest or weed control at 15.625 g/ha: 0%
  pest or weed control at 62.5 g/ha: 0%
  pest or weed control at 250 g/ha: 0%
[5]
  pest or weed control at 15.625 g/ha: 0%
  pest or weed control at 62.5 g/ha: 0%
  pest or weed control at 250 g/ha: 0%
[6]
  pest or weed control at 15.625 g/ha: 0%
  pest or weed control at 62.5 g/ha: 0%
  pest or weed control at 250 g/ha: 0%
[7]
  pest or weed control at 15.625 g/ha: 0%
  pest or weed control at 62.5 g/ha: 0%
  pest or weed control at 250 g/ha: 0%
Corn (Zea mays) [8]
  plant injury at 15.625 g/ha: 0%
  plant injury at 62.5 g/ha: 0%
  plant injury at 250 g/ha: 0%
[9]
  pest or weed control at 15.625 g/ha: 0%
  pest or weed control at 62.5 g/ha: 0%
  pest or weed control at 250 g/ha: 0%
[10]
  pest or weed control at 15.625 g/ha: 0%
  pest or weed control at 62.5 g/ha: 0%
  pest or weed control at 250 g/ha: 0%
[11]
  pest or weed control at 15.625 g/ha: 0%
  pest or weed control at 62.5 g/ha: 0%
  pest or weed control at 250 g/ha: 0%
[12]
  pest or weed control at 15.625 g/ha: 0%
  pest or weed control at 62.5 g/ha: 0%
  pest or weed control at 250 g/ha: 0%

## Cc1cnc(NC(=O)[C@@H]2C(=O)N(C)C[C@H]2c2ccc(C(F)(F)F)cc2)s1 (racemic) [Compound 1570]
[1]
  pest or weed control at 15.625 g/ha: 0%
  pest or weed control at 62.5 g/ha: 0%
  pest or weed control at 250 g/ha: 0%
Corn (Zea mays) [2]
  plant injury at 15.625 g/ha: 0%
  plant injury at 62.5 g/ha: 0%
  plant injury at 250 g/ha: 0%
[3]
  pest or weed control at 15.625 g/ha: 0%
  pest or weed control at 62.5 g/ha: 0%
  pest or weed control at 250 g/ha: 0%
[4]
  pest or weed control at 15.625 g/ha: 0%
  pest or weed control at 62.5 g/ha: 0%
  pest or weed control at 250 g/ha: 0%
[5]
  pest or weed control at 15.625 g/ha: 0%
  pest or weed control at 62.5 g/ha: 0%
  pest or weed control at 250 g/ha: 0%
[6]
  pest or weed control at 15.625 g/ha: 0%
  pest or weed control at 62.5 g/ha: 0%
  pest or weed control at 250 g/ha: 0%
[7]
  pest or weed control at 15.625 g/ha: 0%
  pest or weed control at 62.5 g/ha: 0%
  pest or weed control at 250 g/ha: 10%
Corn (Zea mays) [8]
  plant injury at 15.625 g/ha: 0%
  plant injury at 62.5 g/ha: 0%
  plant injury at 250 g/ha: 0%
[9]
  pest or weed control at 15.625 g/ha: 0%
  pest or weed control at 62.5 g/ha: 0%
  pest or weed control at 250 g/ha: 20%
[10]
  pest or weed control at 15.625 g/ha: 0%
  pest or weed control at 62.5 g/ha: 0%
  pest or weed control at 250 g/ha: 10%
[11]
  pest or weed control at 15.625 g/ha: 0%
  pest or weed control at 62.5 g/ha: 0%
  pest or weed control at 250 g/ha: 0%
[12]
  pest or weed control at 15.625 g/ha: 0%
  pest or weed control at 62.5 g/ha: 0%
  pest or weed control at 250 g/ha: 0%
